Data published in ChEMBL document CHEMBL4330173, “TRPV1 Modulators for the Treatment of Pain and Inflammation” (ACS Med Chem Lett, 2019).
pEC50, pIC50: −log10 of the molar value.

Key:
[1] = molecular target: T1, Transient receptor potential cation channel subfamily V member 1 (Rattus norvegicus, UniProt O35433); experiment: Agonist activity at rat TRPV1 expressed in human SH-SY5Y cells assessed as intracellular calcium accumulation by Fluo-4 NW dye based fluorescence assay; format: cell-based
[2] = molecular target: T1, Transient receptor potential cation channel subfamily V member 1; experiment: Antagonist activity at rat TRPV1 expressed in human SH-SY5Y cells assessed as reduction in capsaicin-induced intracellular calcium accumulation preincubated with cells followed by capsaicin addition by Fluo-4 NW dye based fluorescence assay; format: cell-based

T1 sequence (O35433 whole entry): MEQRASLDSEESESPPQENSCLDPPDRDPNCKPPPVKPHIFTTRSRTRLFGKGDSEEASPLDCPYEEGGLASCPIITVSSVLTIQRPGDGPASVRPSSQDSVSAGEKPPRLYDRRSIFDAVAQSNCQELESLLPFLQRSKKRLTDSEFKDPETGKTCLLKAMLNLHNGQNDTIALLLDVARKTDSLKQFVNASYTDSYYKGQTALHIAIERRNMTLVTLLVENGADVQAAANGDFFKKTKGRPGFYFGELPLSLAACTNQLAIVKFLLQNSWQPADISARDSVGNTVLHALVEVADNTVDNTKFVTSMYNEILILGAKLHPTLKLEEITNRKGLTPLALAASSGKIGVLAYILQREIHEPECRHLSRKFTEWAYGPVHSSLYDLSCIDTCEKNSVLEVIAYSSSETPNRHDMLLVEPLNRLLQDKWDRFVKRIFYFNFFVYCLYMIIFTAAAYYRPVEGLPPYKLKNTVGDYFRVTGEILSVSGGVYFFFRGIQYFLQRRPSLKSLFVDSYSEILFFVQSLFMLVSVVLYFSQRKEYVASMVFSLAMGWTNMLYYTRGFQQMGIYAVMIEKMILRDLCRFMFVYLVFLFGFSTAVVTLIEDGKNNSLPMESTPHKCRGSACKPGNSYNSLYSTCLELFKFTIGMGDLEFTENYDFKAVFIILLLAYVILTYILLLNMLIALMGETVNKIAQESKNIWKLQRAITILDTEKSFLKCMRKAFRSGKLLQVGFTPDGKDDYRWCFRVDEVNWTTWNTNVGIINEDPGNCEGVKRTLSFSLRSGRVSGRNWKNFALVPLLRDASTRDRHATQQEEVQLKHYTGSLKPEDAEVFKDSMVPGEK

Row | pEC50 [1] | pIC50 [2] | Structure (SMILES)
1 | 7.82 |  | CC(C)=CCC/C(C)=C/CC/C(C)=C/CC/C=C(\C)CC/C=C(\C)CCC(=O)OCC(=O)NCc1ccc(O)c(O)c1
2 |  | 6.49 | COc1cc(CNC(=O)COC(=O)/C=C(\C)CCC=C(C)C)c(I)cc1O
